Laboratory results from patent US12351829B2, “Generation, proliferation and expansion of epithelial cells from primary tissue into mucosoid cultures” (Max-Planck-Gesellschaft zur Förderung der Wissenschaften …, priority 2018, dated 2025).

B1: BMP4: BMP pathway activator provided at 50 ng/ml to drive parietal cell lineage (protein, UniProt P12644 293-408, looked up)
Bone morphogenetic protein 4: SPKHHSQRARKKNKNCRRHSLYVDFSDVGWNDWIVAPPGYQAFYCHGDCPFPLADHLNSTNHAIVQTLVNSVNSSIPKACCVPTELSAISMLYLDEYDKVVLKNYQEMVVEGCGCR

Columns and labels:
[1] = system: parietal cells in corpus-stomach mucosoid culture; details: BMP4-induced corpus mucosoid culture; 10 μl of 5 mM Histamin solution
Procedure: Specific signals are needed to drive the parietal cell lineages and in particular the activation of BMP4 and the suppression MEK/MAPK pathway.
Three corpus samples were taken at passage 4 in ALI and grown for 13 days in regular medium following by 2 weeks treatment with 50 ng/ml of BMP4 and removal of Noggin and EGF. The Corpus-gEPMs on filters were pre-incubated with […] Acridine Orange for 15 min. The filter was cut out of the insert and mounted with the cells facing the glass on a IBIDI chamber with 400 μl of media (the same with AO). A coverslip was put on top. Images were taken with 25× (Glycerol) for 10 min to stabilize the filter and avoid movements. A solution of 10 μl of 5 mM Histamin in medium was applied on the border of the coverslip while imaging. Fluorescence of acridine orange was excited at 488 nm (3-4%) and images were collected in a time series (10sec) at 500-550 nm and 600-650.

[2] = system: IL-8 expression in gastric-antrum mucosoid cultures; experiment: Pro-inflammatory stimulation of gastric-antrum mucosoid cultures, IL-8 qPCR; format: cell-based, human; details: 10 μg/ml TNF-α or 5 μg/ml IL-1β for 3 days; +W+R and −W−R cultures
Procedure: Filters were cut out of the insert and directly transferred to a tube containing 1 ml Trizol (Thermo). After vortexing samples were incubated for 10 min at RT, vortexed again and frozen at −80° C. for long-term storage. 500 μl of chloroform was added to thawed samples before vortexing, incubation for 2 min at RT and centrifugation for 15 min at 4° C. The aqueous phase was mixed with isopropanol, inverted 6× and incubated for 10 min at RT. The sample was transferred to a total RNA isolation Kit column (Thermo) and processed according to the manufacturer's instructions. Total RNA was measured using a NanoDrop and reverse transcription carried out using the Tetro cDNA synthesis Kit (Bioline). DNA was extracted using AllPrep DNA/RNA Mini Kit (Qiagen) according to the manufacturer's instructions; Total DNA was measured using a NanoDrop. qPCR (Step One, Applied Biosystem) was performed using the SensiMix™ SYBR® hi-ROX Kit (Bioline, 3-step cycling according to the manufacturer).
FIG. 16. Antral mucosoid cultures derived from 3 different patients were cultivated for 13 days. Parallel samples were differentiated by excluding Wnt3A and RSPO1 from the culture for 5 days (A)(B) treatment with 10 μg/ml TNF-α or 5 μg/ml IL-1Iβ for 3 days. Expression of IL-8 was analysed by qPCR and normalized to untreated control cells in +W+R medium. ns: not significant; *p<0.005, unpaired t-test. […]

[3] = system: ATP4B+ parietal cells in gastric-corpus derived mucosoid cultures; experiment: BMP4-induced parietal cell differentiation in corpus-stomach mucosoid culture (ATP4B IF); format: cell-based, human; details: 50 ng/ml BMP4 for two weeks, absence of Noggin and EGF; untreated 0,4%

Molecule	IL-8 expression (qPCR) [2]	other results
NCCc1c[nH]cn1 [histamine]		acid production (acridine orange changes to orange) [1]: able to produce acid
TNF-α	induced IL-8 expression regardless of W/R	
IL1-β: recombinant pro-inflammatory cytokine	induced IL-8 preferentially in +W+R cultures	
B1		ATP4B+ parietal cells [3]: 2,4%
